US6503932B2, “Fungicidal mixtures based on amide compounds” (BASF Aktiengesellschaft, priority 2000, dated 2003)

How the values were obtained:
[1] = system: mildew of wheat (Blumeria graminis forma specialis tritici); assay: Activity against mildew of wheat (protective, potted wheat seedlings); type: in vivo; settings: wheat 'Kanzler', 7 days
Experimental: (§1) The active compounds, separately or together, were formulated as a 10% strength emulsion in a mixture of 70% by weight of cyclohexanone, 20% by weight of Nekanil® LN (Lutensol® AP6, wetting agent having emulsifying and dispersing action based on ethoxylated alkylphenols) and 10% by weight of Emulphor® EL (Emulan® EL, emulsifier based on ethoxylated fatty alcohols) and correspondingly diluted with water to the desired concentration.
(§2) Evaluation was carried out by determining the infected leaf areas in percent. These percentages were converted into efficacies. The efficacy (W) was calculated as follows using Abbot's formula: […]
The expected efficacies of the mixtures of the active compounds were determined using Colby's formula [R. S. Colby, Weeds 15, 20-22 (1967)] and compared with the observed efficacies. […]
Leaves of potted wheat seedlings of the culivar “Kanzler” were sprayed to run off point with an aqueous preparation of active compound which had been prepared from a stock solution made of 10% of active compound, 85% of cyclohexanone and 5% of emulsifier and, 24 hours after the spray coating had dried on, dusted with spores of mildew of wheat (Blumeria graminis forma specialis tritici). […] After 7 days, the extent of the mildew development was determined visually in % infection of the total leaf area. […]

[2] = system: Puccinia recondita; assay: Curative activity against Puccinia recondita on wheat (wheat leaf rust); type: in vivo; settings: wheat 'Kanzler', 7 days
Experimental: as §1, §2
α corresponds to the fungal infection of the treated plants in % and β corresponds to the fungal infection of the untreated (control) plants in % An efficacy of 0 means that the infection level of the treated plants corresponds to that of the untreated control plants; an efficacy of 100 means that the treated plants were not infected.
The expected efficacies of the mixtures of the active compounds were determined using Colby's formula [R. S. Colby, Weeds 15, 20-22 (1967)] and compared with the observed efficacies.
Colby's formula: E=x+y−x·y/100
E expected efficacy, expressed in % of the untreated control, when using the mixture of the active compounds A and B at the concentrations a and b x efficacy, expressed in % of the untreated control, when using active compound A at a concentration of a y efficacy, expressed in % of the untreated control, when using active compound B at a concentration of b.
Leaves of potted wheat seedlings of the cultivar “Kanzler” were dusted with spores of leaf rust (Puccinia recondita). Thereafter, the pots were kept for 24 hours in a chamber of high atmospheric humidity (90 to 95%) and at 20-22° C. During this time, the spores germinated and the germinal tubes penetrated into the leaf tissue. […] Thereafter, the extent of the rust fungus development on the leaves was determined. […]

spiroxamine [spiroxamine (II)]
Efficacy in % of the untreated control ([1]; 1.5 ppm in the spray liquor): 0% | Efficacy in % of the untreated control ([1]; 3 ppm in the spray liquor): 20% | Efficacy in % of the untreated control ([2]; 1.5 ppm in the spray liquor): 0% | Efficacy in % of the untreated control ([2]; 3 ppm in the spray liquor): 0% | Efficacy in % of the untreated control ([2]; 12.5 ppm in the spray liquor): 30%
